This note sets out measurements from PMC9030166, “Natural Phaeosphaeride A Derivatives Overcome Drug Resistance of Tumor Cells and Modulate Signaling Pathways” (Pharmaceuticals, 2022).

Several values for one entry are separate records, joined by “and”; a condition that tells them apart may be missing. Identical values can stand only once.

By IC50 is commonly meant the concentration at which inhibition is half-maximal. Higher therefore signals lower potency.

In one series the test system is K562. The series is described as follows: MTT cytotoxicity, K562 chronic myeloid leukemia cells. As to conditions: Homo sapiens, K562, suspension culture, 48 h (Table 2). Format: cell-based. The source says: (§1) Cell cultures used in the work: adhesive cultures HBL-100 cells (cells of a normal mammary gland epithelium, immortalized by the SV40 virus and acquired tumorigenicity); MCF-7 breast cancer cells; PC-3 prostate adenocarcinoma cells; HCT-116 colorectal cancer cells; non-small cell lung cancer cells A549; human embryonic kidney cells HEK293; suspension cultures (NCI-H929 and RPMI8226 multiple myeloma cells), K562 chronic myeloid leukemia cells; THP-1 acute monocytic leukemia cells; and Jurkat acute T-cell leukemia cells. We also used several primary cultures of soft tissue sarcomas at 3–4passeges, kindly provided by T.I. Fetisov (The Ethics Committee of N.N. Blokhin NMRCO, protocol code 18-28-09095 and date of approval 28 September 2018).
(§2) Modifications of cell lines: K562/i-S9 is a clone obtained after transfection of K562 cells with the ABCB1 (MDR1) gene-encoding P-glycoprotein [36]. Cells HBL-100/Dox and K562/i-S9_Dox are cells obtained by long-term selection with increasing concentrations of doxorubicin (Sigma-Aldrich, St. Louis, MO, USA) from HBL-100 and K562/i-S9 cells, respectively. MCF-7, A594 cells, and primary cultures of soft tissue sarcomas were cultured in DMEM medium (PanEko, Russia), PC-3 and HCT-116 cells and all suspension cultures in RPMI1640 medium (PanEko, Russia) supplemented with 10% fetal bovine serum (GE Healthcare LifeSciences, USA), and gentamicin at a concentration of 40 μg/mL at 37 °C and 5% CO2.
(§3) Cells MCF-7, PC-3, A549, and HCT-116, and primary cultures of STSwere seeded in 96-well plates, 6 × 10^3 cells per well in 90 μL of culture medium. Suspension cultures were seeded at a concentration of 25 × 10^3 cells per well in 135 μL of medium. The test substances were dissolved in DMSO (Applichem, Council Bluffs, IA, USA) until a concentration of 1 × 10^−^2 M was obtained; for the subsequent dilution of the substances, a serum-free culture medium was used. The next day, for adhesive cultures, and on the same day, for suspension cultures, substances were added to the plates in a volume of 10 μL (adhesive cultures) and 15 μL (suspension cultures) per well at various concentrations; each concentration was added in 3–4 repetitions. The cells were cultured in the presence of substances for 48 h. Then, MTT reagent (PanEko, Moscow, Russia) was added to the wells at a concentration of 5 mg/mL in a volume of 20 μL per well. After 1.5–2 h, the medium with the reagent was removed, and the precipitate of the crystals of formazan was dissolved in 60 μL of DMSO. The optical density was determined using a Multiskan FC spectrophotometer (Thermo Scientific, Waltham, MA, USA) at a wavelength of 540 nm.
(§4) Based on the results of the experiments, a schedule was plotted of the dependence of the percentage of surviving cells (from control) on the concentration of the compound, and the sought concentration IC50 was calculated. The experiments were carried out in 3–4 times.

The next series has as its system A431 cells. The series is described as follows: IC50 on A431 cells (xCelligence RTCA cell index). Format: cell-based. As to conditions: Homo sapiens, A-431. The source says:
A431 cells are characterized by a high inducibility of transcription factors STAT3 and STAT5. In turn, phaeosphaeride A and its derivatives are probably inhibitors of the STAT3 gene. Therefore, the A431 cell line was chosen as a model for searching for possible targets for the action of phaeosphaeride A derivatives. Table 7 presents IC50 data for phaeosphaeride A derivatives on A431 cells.
The effect of various concentrations of PPA derivatives on the cell culture was studied using xCelligence RTCA equipment (AceaBioscience, San Diego, CA, USA). The concentration closest to the IC50 (10 μM) was chosen as the experimental concentration. The selected concentration of phaeosphaeride A derivatives allows for the assessment of the early effect of compounds on cells and compares their effectiveness. In this experiment, the signaling pathways Akt (pSer473), p70S6K (pThr412), NFkB (p65-pSer536), and CREB (pSer133) were not activated (Table 8). The stress-activated signaling pathways ERK/MAP kinase 1/2 (pThr185/pTyr187), JNK (pThr183/pTyr185), and p38 (pThr180/pTyr182) were activated for these compounds.
To determine the integral cellular response using the xCelligence RTCA equipment (AceaBioscience, Santa Clara, CA, USA), 20 thousand cells were inoculated into a well of a specialized plate allowing the determination of the cell index in real time and cultured in complete growth medium. The next day after the seeding, the medium was replaced with an experimental one (compounds at concentrations of […]). The cell index was monitored for 3 days after the addition of the xenobiotic. The concentration closest to the IC50 (10 μM) was chosen as the experimental concentration.

The target of the next series is T1, P-glycoprotein (Homo sapiens, UniProt P08183).
T1 construct: expressed in transfected cells; host or cells: K562/i-S9_Dox (K562 transfected with ABCB1/MDR1, then selected with increasing doxorubicin)
T1 sequence (P08183 whole entry): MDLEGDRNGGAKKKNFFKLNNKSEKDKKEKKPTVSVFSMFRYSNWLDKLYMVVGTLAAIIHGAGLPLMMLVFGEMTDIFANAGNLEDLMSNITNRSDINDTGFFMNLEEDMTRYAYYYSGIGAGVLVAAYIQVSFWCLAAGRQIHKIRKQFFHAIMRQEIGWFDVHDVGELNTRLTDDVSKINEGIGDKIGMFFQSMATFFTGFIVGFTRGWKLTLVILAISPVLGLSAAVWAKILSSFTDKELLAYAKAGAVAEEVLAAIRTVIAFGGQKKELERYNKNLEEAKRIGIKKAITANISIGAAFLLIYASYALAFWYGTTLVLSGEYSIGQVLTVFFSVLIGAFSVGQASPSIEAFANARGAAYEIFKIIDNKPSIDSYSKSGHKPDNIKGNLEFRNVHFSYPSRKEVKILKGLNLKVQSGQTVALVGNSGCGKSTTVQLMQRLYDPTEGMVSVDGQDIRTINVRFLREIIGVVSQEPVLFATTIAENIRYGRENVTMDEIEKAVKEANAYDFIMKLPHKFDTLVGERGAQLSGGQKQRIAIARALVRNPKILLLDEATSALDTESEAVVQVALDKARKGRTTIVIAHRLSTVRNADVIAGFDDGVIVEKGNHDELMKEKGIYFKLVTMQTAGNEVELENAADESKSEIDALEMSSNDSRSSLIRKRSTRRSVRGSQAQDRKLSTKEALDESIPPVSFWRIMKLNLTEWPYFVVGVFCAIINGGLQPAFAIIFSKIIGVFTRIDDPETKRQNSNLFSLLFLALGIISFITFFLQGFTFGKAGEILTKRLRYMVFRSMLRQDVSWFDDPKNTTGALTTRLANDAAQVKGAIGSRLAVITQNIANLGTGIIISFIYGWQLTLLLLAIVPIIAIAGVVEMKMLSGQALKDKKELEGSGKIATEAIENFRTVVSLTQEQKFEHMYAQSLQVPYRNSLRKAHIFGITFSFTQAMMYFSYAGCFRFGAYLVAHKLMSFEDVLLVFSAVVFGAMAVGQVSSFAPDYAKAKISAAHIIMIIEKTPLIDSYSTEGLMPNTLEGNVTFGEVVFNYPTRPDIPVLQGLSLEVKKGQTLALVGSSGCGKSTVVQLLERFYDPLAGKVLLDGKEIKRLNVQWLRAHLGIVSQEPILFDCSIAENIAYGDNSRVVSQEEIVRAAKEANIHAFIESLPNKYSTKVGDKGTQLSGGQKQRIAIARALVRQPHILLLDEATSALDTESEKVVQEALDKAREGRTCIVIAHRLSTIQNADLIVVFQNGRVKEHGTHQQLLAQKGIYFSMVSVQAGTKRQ
The series is described as follows: Release of rhodamine 123 (Rd123) from K562/i-S9_Dox cells, flow cytometry. Format: cell-based. The note with it: K562/i-S9_Dox cells after Rd123 release, compound 20 μM, 35 min; release without compound 17.1 ± 6.6. On the procedure:
The principle of the test is as follows: Rd123 is a fluorophore and a known P-gp substrate. During incubation, Rd123 enters the cells by simple diffusion, and then Rd123 begins to interact with P-gp, which releases it from the cell. Cells in which Rd123 is present are stained and can be detected by flow cytometry. The more efficiently P-gp works, the less stained cells in the population remain over time.
The experiment used K562/i-S9_Dox cells with P-gp overexpression. Cells (5 × 10^5 per point) were incubated with Rd123 at a concentration of 3.5 μg/mL for 20 min in serum-free RPMI1640 medium. Furthermore, the efficiency of Rd123 entry into cells was assessed. […] Incubation with substances took place for 35 min in 1 mL of serum-free medium. Then, the cells were precipitated, washed with PBS solution, and the % of stained cells in the population were assessed on a flow cytometer.
In general terms: A flow cytometer gives signals particle by particle.

In another series the test system is PC3. The series is described as follows: MTT cytotoxicity, PC-3 prostate adenocarcinoma cells. Format: cell-based, human. The note with it: 48 h; for IC50: Homo sapiens, PC-3, adhesive tumor culture.
From the text: as §1, §2, §3, §4

As for `C=C1C2=C(C(=O)N1OC)[C@@H](N1CCCC1)[C@@](C)(O)[C@H](CCCCC)O2` [Compound 1], the half-maximal inhibitory concentration (IC50) amounted to 3.8 ± 0.6 µM in the series with K562, 3.7 µM with A431 cells and 7.6 ± 0.9 µM in the series with PC3. The “% Luminous Cells” value at P-glycoprotein is 73% and 73.4 ± 6.7%.

For the compound `C=C1C2=C(C(=O)N1OC)[C@@H](N(C)C)[C@@](C)(O)[C@H](CCCCC)O2` [Compound 2, (2S,3R,4R)-4-(dimethylamino)-3-hydroxy-6-methoxy-3-methyl-7-methylene-2-pentyl-3,4,6,7-tetrahydropyrano[2,3-c]pyrrol-5(2H)-one], the IC50 in the series on K562 is 2.4 ± 0.7 µM; with A431 cells, 1.9 µM; in the series with PC3, 5.9 ± 3 µM. Also, the “% Luminous Cells” value on P-glycoprotein is 82% and 82.4 ± 3.0%.

Regarding `C=C1C2=C(C(=O)N1OC)[C@@H](N(CCCC)CCCC)[C@@](C)(O)[C@H](CCCCC)O2` [Compound 5, (2S,3R,4R)-4-(dibutylamino)-3-hydroxy-6-methoxy-3-methyl-7-methylene-2-pentyl-3,4,6,7-tetrahydropyrano[2,3-c]pyrrol-5(2H)-one], the results for the 50% inhibitory concentration (IC50) in the series with K562, in the series on A431 cells and in the series on PC3 were 6.5 ± 0.5 µM, above 50 µM and 9.4 ± 1 µM, respectively.

As to `C=C1C2=C(C(=O)N1OC)[C@@H](N(CC)CCO)[C@@](C)(O)[C@H](CCCCC)O2` [Compound 9, (2S,3R,4R)-4-[ethyl(2-hydroxyethyl)amino]-3-hydroxy-6-methoxy-3-methyl-7-methylene-2-pentyl-3,4,6,7-tetrahydropyrano[2,3-c]pyrrol-5(2H)-one], the IC50 stood at 3.7 ± 0.5 µM with K562, 4.6 µM with A431 cells and 7.8 ± 0.1 µM with PC3. The “% Luminous Cells” value on P-glycoprotein was 80% and 80.2 ± 6.2%.

Turning to `CCCCC[C@@H]1OC2=C(C(=O)N(OC)/C2=C\n2cnnc2)C(n2cnnc2)[C@@]1(C)O` (stereo partly drawn) [Compound 10], the concentration for half-maximal inhibition (IC50) was 45 ± 5.4 µM in the series with K562 and above 50 µM in the series with A431 cells. Besides, in the series with PC3 (adhesive tumor culture), the “IC50 value, PC3” value is given as “not active”.
